Test [1] addresses ALK tyrosine kinase receptor (Homo sapiens, UniProt Q9UM73). Put plainly: Binding affinity to recombinant human […] N-terminal GST-tagged ALK (1058 to 1620 residues) expressed in baculovirus expression system using Srctide as substrate incubated for 1 hr by TR-FRET assay. (TR-FRET usually uses a lanthanide donor and a delayed reading to cut background.)
Test [2] concerns the target Dual specificity protein kinase CLK1 (Homo sapiens, UniProt P49759). Put plainly: Binding affinity to recombinant N-terminal His-FLAG-GST-tagged CLK1 (unknown origin) (129 to 484 residues) expressed in baculovirus infected Sf9 insect cells incubated for 1 hr by TR-FRET assay.
Test [3] deals with Mitogen-activated protein kinase kinase kinase 2 (Homo sapiens, UniProt Q9Y2U5). Put plainly: Binding affinity to recombinant full-length N-terminal His-FLAG-GST-tagged MAP3K2 (unknown origin) (337 to 620 residues) expressed in baculovirus infected Sf9 insect cells incubated for 1 hr by TR-FRET assay.
The target of test [4] is Serine/threonine-protein kinase 24 (Homo sapiens, UniProt Q9Y6E0). Put plainly: Binding affinity to recombinant full-length N-terminal His-FLAG-tagged STK24 (unknown origin) expressed in baculovirus infected Sf9 insect cells incubated for 1 hr by TR-FRET assay.
The target in test [5] is Fibroblast growth factor receptor 1 (Homo sapiens, UniProt P11362). Put plainly: Binding affinity to recombinant N-terminal His-FLAG-GST-tagged FGFR1 (unknown origin) (396 to 820 residues) expressed in baculovirus infected Sf9 insect cells incubated for 1 hr by TR-FRET assay.
For test [6], the target named is Fibroblast growth factor receptor 3 (Homo sapiens, UniProt P22607). Put plainly: Binding affinity to recombinant N-terminal His-FLAG-GST-tagged FGFR3 (unknown origin) (436 to 806 residues) expressed in baculovirus infected Sf9 insect cells incubated for 1 hr by TR-FRET assay.
The target of a further test is Ephrin type-A receptor 7 (Homo sapiens, UniProt Q15375). The experiment in a line: Binding affinity to recombinant N-terminal His-FLAG-GST-tagged EPHA7 (unknown origin) ( 595 to 998 residues) expressed in baculovirus infected Sf9 insect cells incubated for 1 hr by TR-FRET assay.
For test [7], the target named is AP2-associated protein kinase 1 (Homo sapiens, UniProt Q2M2I8). The experiment in a line: Binding affinity to recombinant full-length N-terminal His-FLAG-GST-tagged AAK1 (unknown origin) expressed in baculovirus infected Sf9 insect cells incubated for 1 hr by TR-FRET assay.
The target of the next test is Angiopoietin-1 receptor (Homo sapiens, UniProt Q02763). The experiment in a line: Binding affinity to recombinant full-length N-terminal His-FLAG-GST-tagged TEK (unknown origin) (771 to 1124 residues) expressed in baculovirus infected Sf9 insect cells incubated for 1 hr by TR-FRET assay.
In test [8] the target is Tyrosine-protein kinase HCK (Homo sapiens, UniProt P08631). The experiment in a line: Binding affinity to recombinant full-length N-terminal His-FLAG-GST-tagged HCK (unknown origin) (25 to 526 residues) expressed in baculovirus infected Sf9 insect cells incubated for 1 hr by TR-FRET assay.
Test [9] has as its target Proto-oncogene tyrosine-protein kinase Src (Homo sapiens, UniProt P12931). The experiment in a line: Binding affinity to recombinant full-length N-terminal His-FLAG-GST-tagged SRC (unknown origin) expressed in baculovirus infected Sf9 insect cells incubated for 1 hr by TR-FRET assay.
Test [10] deals with Glycogen synthase kinase-3 beta (Homo sapiens, UniProt P49841). Put plainly: Binding affinity to recombinant full-length N-terminal His-FLAG-GST-tagged GSK3B (unknown origin) expressed in baculovirus infected Sf9 insect cells incubated for 1 hr by TR-FRET assay.
For test [11], the target named is Hepatocyte growth factor receptor (Homo sapiens, UniProt P08581). The experiment in a line: Binding affinity to recombinant full-length N-terminal His-FLAG-GST-tagged MET (unknown origin) (956 to 1390 residues) expressed in baculovirus infected Sf9 insect cells incubated for 1 hr by TR-FRET assay.
The target of test [12] is cGMP-dependent protein kinase 1 (Homo sapiens, UniProt Q13976). Put plainly: Binding affinity to recombinant full-length N-terminal His-FLAG-tagged PRKG1 (unknown origin) expressed in baculovirus infected Sf9 insect cells incubated for 1 hr by TR-FRET assay.
In another test the target is CDK9/cyclin T1 (Homo sapiens, UniProt P50750). Put plainly: Binding affinity to recombinant human full length N-terminal GST-tagged CDK9 co-expressed with full length N-terminal His-tagged CyclinT1 expressed in baculovirus expression system using CDK9 substrate incubated for 1 hr by TR-FRET assay.
The target of test [13] is RAC-gamma serine/threonine-protein kinase (Homo sapiens, UniProt Q9Y243). The experiment in a line: Binding affinity to recombinant full-length N-terminal His-FLAG-GST-tagged AKT3 (unknown origin) (108 to 479 residues) expressed in baculovirus infected Sf9 insect cells incubated for 1 hr by TR-FRET assay.
Test [14] addresses Mitogen-activated protein kinase kinase kinase 11 (Homo sapiens, UniProt Q16584). The experiment in a line: Binding affinity to recombinant N-terminal His-FLAG-GST-tagged MAP3K11 (unknown origin) (99 to 398 residues) expressed in baculovirus infected Sf9 insect cells incubated for 1 hr by TR-FRET assay.
Test [15] concerns the target Tyrosine-protein kinase Fgr (Homo sapiens, UniProt P09769). Put plainly: Binding affinity to recombinant full-length N-terminal His-FLAG-tagged FGR (unknown origin) expressed in baculovirus infected Sf9 insect cells incubated for 1 hr by TR-FRET assay.
In test [16] the target is Serine/threonine-protein kinase 38-like (Homo sapiens, UniProt Q9Y2H1). The experiment in a line: Binding affinity to recombinant full-length N-terminal His-FLAG-GST-tagged STK38L (unknown origin) expressed in baculovirus infected Sf9 insect cells incubated for 1 hr by TR-FRET assay.
Test [17] concerns the target Serine/threonine-protein kinase N2 (Homo sapiens, UniProt Q16513). The experiment in a line: Binding affinity to recombinant full-length N-terminal His-FLAG-GST-tagged PKN2 (unknown origin) expressed in baculovirus infected Sf9 insect cells incubated for 1 hr by TR-FRET assay.
Test [18] has as its target Tyrosine-protein kinase FRK (Homo sapiens, UniProt P42685). The experiment in a line: Binding affinity to recombinant full-length N-terminal His-FLAG-GST-tagged FRK (unknown origin) (223 to 505 residues) expressed in baculovirus infected Sf9 insect cells incubated for 1 hr […] by TR-FRET assay.
Test [19] deals with Serine/threonine-protein kinase ULK1 (Homo sapiens, UniProt O75385). Put plainly: Binding affinity to recombinant N-terminal His-FLAG-GST-tagged ULK1 (unknown origin) (1 to 649 residues) expressed in baculovirus infected Sf9 insect cells incubated for 1 hr by TR-FRET assay.
Test [20] deals with Macrophage colony-stimulating factor 1 receptor (Homo sapiens, UniProt P07333). Put plainly: Binding affinity to recombinant N-terminal His-FLAG-GST-tagged CSF1R (unknown origin) (538 to 972 residues) expressed in baculovirus infected Sf9 insect cells incubated for 1 hr by TR-FRET assay.
The target in test [21] is Serine/threonine-protein kinase Sgk3 (Homo sapiens, UniProt Q96BR1). The experiment in a line: Binding affinity to recombinant full-length N-terminal His-FLAG-GST-tagged SGK3 (unknown origin) (119 to 496 residues) expressed in baculovirus infected Sf9 insect cells incubated for 1 hr by TR-FRET assay.

Molecules are shown by their SMILES.

Sequence of Dual specificity protein kinase CLK1 (P49759 whole entry, the tested form may be a part): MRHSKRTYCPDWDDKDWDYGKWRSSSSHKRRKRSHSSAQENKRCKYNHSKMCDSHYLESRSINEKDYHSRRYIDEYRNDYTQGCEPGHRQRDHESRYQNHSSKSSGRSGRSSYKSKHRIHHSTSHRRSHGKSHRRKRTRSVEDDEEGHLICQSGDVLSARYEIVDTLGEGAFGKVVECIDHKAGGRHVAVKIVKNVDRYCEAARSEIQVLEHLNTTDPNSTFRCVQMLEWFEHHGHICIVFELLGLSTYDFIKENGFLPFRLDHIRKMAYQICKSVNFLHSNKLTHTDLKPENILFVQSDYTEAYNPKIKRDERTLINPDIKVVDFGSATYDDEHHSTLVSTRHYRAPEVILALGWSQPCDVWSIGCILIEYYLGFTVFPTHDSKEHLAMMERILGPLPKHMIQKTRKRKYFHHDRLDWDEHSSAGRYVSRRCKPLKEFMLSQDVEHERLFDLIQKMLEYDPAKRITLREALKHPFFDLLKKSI
Sequence of Serine/threonine-protein kinase 38-like (Q9Y2H1 whole entry): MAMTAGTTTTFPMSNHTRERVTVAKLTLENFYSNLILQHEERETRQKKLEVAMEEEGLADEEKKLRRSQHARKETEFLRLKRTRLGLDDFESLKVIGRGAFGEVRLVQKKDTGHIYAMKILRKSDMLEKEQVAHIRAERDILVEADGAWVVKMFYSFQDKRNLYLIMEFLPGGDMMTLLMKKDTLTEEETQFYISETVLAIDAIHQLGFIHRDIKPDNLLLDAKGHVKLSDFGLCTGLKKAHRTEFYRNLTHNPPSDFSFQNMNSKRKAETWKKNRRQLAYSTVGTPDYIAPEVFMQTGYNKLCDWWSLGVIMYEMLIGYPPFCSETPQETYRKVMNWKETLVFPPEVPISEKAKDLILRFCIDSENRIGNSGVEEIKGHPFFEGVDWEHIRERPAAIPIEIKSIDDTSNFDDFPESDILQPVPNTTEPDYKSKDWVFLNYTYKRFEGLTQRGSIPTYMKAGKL
Sequence of Mitogen-activated protein kinase kinase kinase 11 (Q16584 whole entry, the tested form may be a part): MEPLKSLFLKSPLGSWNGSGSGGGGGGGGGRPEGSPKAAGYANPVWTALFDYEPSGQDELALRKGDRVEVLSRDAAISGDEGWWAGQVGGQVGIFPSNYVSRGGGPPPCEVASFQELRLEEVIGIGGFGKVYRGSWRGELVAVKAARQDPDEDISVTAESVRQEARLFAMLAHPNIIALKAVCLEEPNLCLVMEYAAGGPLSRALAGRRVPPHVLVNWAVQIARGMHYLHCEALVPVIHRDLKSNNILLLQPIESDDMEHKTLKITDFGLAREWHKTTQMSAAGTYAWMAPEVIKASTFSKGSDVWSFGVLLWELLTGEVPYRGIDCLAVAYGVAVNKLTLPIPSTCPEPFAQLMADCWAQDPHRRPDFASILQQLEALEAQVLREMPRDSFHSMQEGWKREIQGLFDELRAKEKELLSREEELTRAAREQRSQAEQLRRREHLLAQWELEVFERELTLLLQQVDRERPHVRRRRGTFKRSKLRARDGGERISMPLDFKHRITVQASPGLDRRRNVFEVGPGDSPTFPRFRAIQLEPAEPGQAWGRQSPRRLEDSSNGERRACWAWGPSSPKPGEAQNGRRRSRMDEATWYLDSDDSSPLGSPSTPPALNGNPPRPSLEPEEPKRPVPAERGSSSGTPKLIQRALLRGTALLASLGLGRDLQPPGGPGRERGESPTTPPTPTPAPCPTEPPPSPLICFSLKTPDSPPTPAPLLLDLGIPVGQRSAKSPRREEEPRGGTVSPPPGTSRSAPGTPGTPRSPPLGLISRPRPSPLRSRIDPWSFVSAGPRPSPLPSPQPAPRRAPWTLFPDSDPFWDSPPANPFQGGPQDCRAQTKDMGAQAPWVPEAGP
Sequence of CDK9/cyclin T1 (O60563 whole entry, the tested form may be a part): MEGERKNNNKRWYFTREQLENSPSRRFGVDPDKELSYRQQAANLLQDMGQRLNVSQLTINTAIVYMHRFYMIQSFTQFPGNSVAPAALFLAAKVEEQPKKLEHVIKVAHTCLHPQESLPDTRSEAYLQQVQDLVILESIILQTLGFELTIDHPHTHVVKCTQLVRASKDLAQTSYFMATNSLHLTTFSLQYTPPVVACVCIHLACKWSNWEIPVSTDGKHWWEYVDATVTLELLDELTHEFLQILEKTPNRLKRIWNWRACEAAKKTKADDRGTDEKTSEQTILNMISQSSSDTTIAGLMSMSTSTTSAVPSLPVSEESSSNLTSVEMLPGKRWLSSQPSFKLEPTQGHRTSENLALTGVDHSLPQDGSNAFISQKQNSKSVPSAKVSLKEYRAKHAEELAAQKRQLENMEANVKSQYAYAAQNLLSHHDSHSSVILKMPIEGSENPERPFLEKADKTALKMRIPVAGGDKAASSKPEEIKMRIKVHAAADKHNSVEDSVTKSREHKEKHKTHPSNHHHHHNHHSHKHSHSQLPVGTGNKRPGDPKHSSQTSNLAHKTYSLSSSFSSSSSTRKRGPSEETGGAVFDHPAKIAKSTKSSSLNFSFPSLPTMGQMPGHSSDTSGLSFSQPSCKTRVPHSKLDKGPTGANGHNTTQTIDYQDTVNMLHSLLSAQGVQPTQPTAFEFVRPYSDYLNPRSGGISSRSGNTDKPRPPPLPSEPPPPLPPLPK
Sequence of CDK9/cyclin T1 (P50750 whole entry, the tested form may be a part): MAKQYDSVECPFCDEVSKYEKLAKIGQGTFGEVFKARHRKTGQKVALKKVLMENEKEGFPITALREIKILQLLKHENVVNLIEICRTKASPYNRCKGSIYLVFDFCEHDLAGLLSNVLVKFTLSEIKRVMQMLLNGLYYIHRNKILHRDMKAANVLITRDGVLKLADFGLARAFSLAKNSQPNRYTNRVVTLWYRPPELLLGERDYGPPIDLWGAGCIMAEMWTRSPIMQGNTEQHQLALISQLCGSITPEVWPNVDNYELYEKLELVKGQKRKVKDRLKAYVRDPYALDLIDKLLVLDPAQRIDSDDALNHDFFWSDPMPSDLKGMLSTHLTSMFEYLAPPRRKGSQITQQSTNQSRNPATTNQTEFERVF
Sequence of Tyrosine-protein kinase FRK (P42685 whole entry, the tested form may be a part): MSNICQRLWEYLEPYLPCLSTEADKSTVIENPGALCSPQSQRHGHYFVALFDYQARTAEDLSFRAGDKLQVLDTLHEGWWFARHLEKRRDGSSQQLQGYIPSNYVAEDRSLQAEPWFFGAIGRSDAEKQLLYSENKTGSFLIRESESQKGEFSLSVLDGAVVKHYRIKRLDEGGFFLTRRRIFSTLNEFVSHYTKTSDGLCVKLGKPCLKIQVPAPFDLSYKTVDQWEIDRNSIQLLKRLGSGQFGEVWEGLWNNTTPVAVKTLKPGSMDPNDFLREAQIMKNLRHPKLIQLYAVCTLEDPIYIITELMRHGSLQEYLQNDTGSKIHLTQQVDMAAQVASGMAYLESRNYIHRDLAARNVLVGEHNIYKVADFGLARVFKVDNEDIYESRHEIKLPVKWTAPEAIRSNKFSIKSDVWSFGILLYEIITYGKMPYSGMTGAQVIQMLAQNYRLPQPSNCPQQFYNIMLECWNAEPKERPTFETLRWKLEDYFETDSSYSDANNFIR
Sequence of Tyrosine-protein kinase Fgr (P09769 whole entry): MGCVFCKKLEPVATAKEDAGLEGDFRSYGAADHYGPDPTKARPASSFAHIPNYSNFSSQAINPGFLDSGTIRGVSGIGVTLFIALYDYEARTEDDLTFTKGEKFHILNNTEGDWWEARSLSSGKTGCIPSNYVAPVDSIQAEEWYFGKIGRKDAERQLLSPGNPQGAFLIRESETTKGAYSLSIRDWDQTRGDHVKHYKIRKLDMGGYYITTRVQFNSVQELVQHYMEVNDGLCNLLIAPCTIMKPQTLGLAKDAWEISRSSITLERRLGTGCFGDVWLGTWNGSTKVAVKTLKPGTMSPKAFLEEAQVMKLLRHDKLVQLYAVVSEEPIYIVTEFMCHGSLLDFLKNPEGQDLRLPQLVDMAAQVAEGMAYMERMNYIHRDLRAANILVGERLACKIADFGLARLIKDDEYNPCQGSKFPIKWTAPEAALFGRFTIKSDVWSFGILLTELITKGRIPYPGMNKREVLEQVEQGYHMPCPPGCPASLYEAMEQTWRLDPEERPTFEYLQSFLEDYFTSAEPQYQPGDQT
Sequence of RAC-gamma serine/threonine-protein kinase (Q9Y243 whole entry, the tested form may be a part): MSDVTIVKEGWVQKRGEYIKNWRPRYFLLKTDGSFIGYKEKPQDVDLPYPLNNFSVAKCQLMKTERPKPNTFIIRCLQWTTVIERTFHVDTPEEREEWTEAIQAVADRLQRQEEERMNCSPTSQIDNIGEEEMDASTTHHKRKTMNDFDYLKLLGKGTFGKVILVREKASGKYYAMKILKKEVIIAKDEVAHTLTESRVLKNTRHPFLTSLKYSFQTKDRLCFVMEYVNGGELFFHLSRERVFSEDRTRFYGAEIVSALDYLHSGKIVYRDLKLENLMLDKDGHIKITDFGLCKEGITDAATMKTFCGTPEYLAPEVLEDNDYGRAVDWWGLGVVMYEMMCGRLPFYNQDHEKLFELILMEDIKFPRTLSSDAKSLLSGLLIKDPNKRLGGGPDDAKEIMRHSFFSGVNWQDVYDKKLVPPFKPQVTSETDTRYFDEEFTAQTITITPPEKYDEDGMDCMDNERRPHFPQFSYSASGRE
Sequence of Serine/threonine-protein kinase Sgk3 (Q96BR1 whole entry, the tested form may be a part): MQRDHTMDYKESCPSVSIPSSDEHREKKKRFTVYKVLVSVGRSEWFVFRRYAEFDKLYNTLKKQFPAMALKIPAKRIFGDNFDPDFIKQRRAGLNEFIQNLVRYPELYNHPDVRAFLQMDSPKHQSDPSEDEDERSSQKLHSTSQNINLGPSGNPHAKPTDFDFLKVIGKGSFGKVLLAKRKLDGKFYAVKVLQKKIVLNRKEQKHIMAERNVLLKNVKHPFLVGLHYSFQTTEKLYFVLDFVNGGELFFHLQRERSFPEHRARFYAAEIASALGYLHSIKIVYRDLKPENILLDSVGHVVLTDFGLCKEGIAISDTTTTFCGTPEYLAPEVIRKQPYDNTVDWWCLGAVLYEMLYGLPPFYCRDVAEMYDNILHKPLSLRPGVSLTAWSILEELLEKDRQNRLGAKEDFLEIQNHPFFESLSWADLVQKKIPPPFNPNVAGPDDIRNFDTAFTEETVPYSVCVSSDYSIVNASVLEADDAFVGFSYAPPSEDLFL

`CO[C@@H]1[C@H](NCCOCCOCCOCCNC(=O)CCC2=[N+]3C(=Cc4c(C)cc(C)n4[B-]3(F)F)C=C2)C[C@H]2O[C@]1(C)n1c3ccccc3c3c4c(c5c6ccccc6n2c5c31)C(=O)NC4`: the Kd (usually a measure of binding affinity in units of concentration) came to 230 nM in [1]; 93 nM in test [2]; 38 nM in test [3]; 436 nM in test [4]; 268 nM in test [5]; 409 nM in test [6]. Besides, the Kd amounted to 766 nM on Ephrin type-A receptor 7; 6 nM in test [7]; 395 nM at Angiopoietin-1 receptor; 263 nM in [8]; 452 nM in [9]; 230 nM in test [10]. The Kd amounted to 930 nM in test [11]; 109 nM in test [12]; 162 nM at CDK9/cyclin T1; 749 nM in [13]; 3 nM in test [14]; 101 nM in [15]. The Kd in [16] was found to be 759 nM; in test [17], 6 nM; in test [18], 332 nM; in test [19] it was 135 nM; in test [20], 279 nM; in test [21], 322 nM.

In the case of `CO[C@@H]1[C@H](N(C)CCOCCOCCOCCNC(=O)CCC2=[N+]3C(=Cc4c(C)cc(C)n4[B-]3(F)F)C=C2)C[C@H]2O[C@]1(C)n1c3ccccc3c3c4c(c5c6ccccc6n2c5c31)C(=O)NC4`, the Kd stood at 172 nM in [1]; 125 nM in test [2]; 53 nM in [3]; 767 nM in test [4]; 643 nM in test [5]; 848 nM in test [6]. Further, the Kd on Ephrin type-A receptor 7 was 887 nM; in test [7] it was 5 nM; on Angiopoietin-1 receptor, 408 nM; in test [8], 280 nM; in test [9], 572 nM; in test [10], 148 nM. Moreover, the Kd in [11] came to 812 nM; in [12] it was 85 nM; on CDK9/cyclin T1 it was 116 nM; in test [13] it was 537 nM; in test [14], 4 nM; in test [15], 119 nM. For the same compound, the Kd was > 2000 nM in [16]; 4 nM in test [17]; 372 nM in test [18]; 311 nM in test [19]; 324 nM in test [20]; 338 nM in test [21].

The values are drawn from ChEMBL document CHEMBL4321812, “Structure-based rational design of staurosporine-based fluorescent probe with broad-ranging kinase affinity for kinase panel application” (Bioorg Med Chem Lett, 2019).
